Test [1] deals with Mycobacterium tuberculosis. Nature of the test: Antimycobacterial activity against Mycobacterium tuberculosis H37Rv ATCC 27294 by microplate alamar blue assay. Type of test: functional.
Test [2] relates to Mycobacterium tuberculosis. Nature of the test: Antimycobacterial activity against Mycobacterium tuberculosis H37Rv after 7 days by microplate alamar blue assay. The following applies: 168 h. It counts as functional.
For test [3], the system named is Mycobacterium tuberculosis. As to the kind of experiment: Antimycobacterial activity against Mycobacterium tuberculosis H37Ra by microplate alamar blue assay. Type of test: functional.
The subject of test [4] is Mycobacterium tuberculosis. Nature of the test: Antimycobacterial activity against Mycobacterium tuberculosis H37Rv ATCC 27294 after 5 days by microplate alamar blue assay. The following applies: H37Rv ATCC 27294, 120 h. It counts as functional.
Test [5] relates to Mycobacterium tuberculosis. As to the kind of experiment: Antimycobacterial activity against Mycobacterium tuberculosis H37Rv. It counts as functional, organism-based.
The test system of test [6] is Mycobacterium tuberculosis. As to the kind of experiment: Antimycobacterial activity against Mycobacterium tuberculosis H37Rv ATCC 27294 by BACTEC-460 radiometric susceptibility assay. Type of test: functional.
The test system of test [7] is Mycobacterium tuberculosis. Nature of the test: Bactericidal activity against Mycobacterium tuberculosis H37Rv. It counts as functional.
Test [8] has as its system Mycobacterium tuberculosis. As to the kind of experiment: Antimycobacterial activity against p-aminosalicyclic acid-resistant Mycobacterium tuberculosis H37Rv ATCC 35821. It counts as functional.

Values after ≈ are worked out from the molar mass of the structure shown. Where only a bound is given, the exact number is not on record here.

Turning to `C=C(C)[C@@H]1CC[C@]2(C)CC[C@]3(C)[C@H](CC[C@@H]4[C@@]5(C)CC[C@H](O)C(C)(C)[C@@H]5CC[C@]43C)[C@@H]12` [LUPEOL], the MIC90 in test [1] is above 64 µg/mL.

The molecule `C=C(C)[C@@H]1CC[C@]2(C(=O)O)CC[C@]3(C)[C@H](CC[C@@H]4[C@@]5(C)CC[C@H](O)C(C)(C)[C@@H]5CC[C@]43C)[C@@H]12` [BETULINIC ACID] came in with an MIC90 in test [2] of 25 µg/mL (≈ 54.7 µM). Further, the MIC in test [3] is 50 µg/mL (≈ 109 µM); in test [4], above 100 µg/mL; in test [1] it was 62 µg/mL (≈ 136 µM).

As for `C[C@H]1[C@H](C)CC[C@]2(C(=O)O)CC[C@]3(C)C(=CC[C@@H]4[C@@]5(C)CC[C@H](O)C(C)(C)[C@@H]5CC[C@]43C)[C@H]12` [URSOLIC ACID], the MIC99 in test [5] was found to be 100 µg/mL (≈ 219 µM); in test [6] it was 50 µg/mL (≈ 109 µM).

`C=C(C)[C@@H]1CC[C@]2(CO)CC[C@]3(C)[C@H](CC[C@@H]4[C@@]5(C)CCCNC(C)(C)[C@@H]5CC[C@]43C)[C@@H]12`: in test [5], 10.9 µM corresponded to half-maximal inhibition (IC50), the 90% effect level (IC90) was put at 12.4 µM and inhibition of growth (MIC) required 10 µM (≈ 4.42 µg/mL). Besides, the MBC in test [7] is 10 µg/mL (≈ 22.6 µM). In addition, 5 µg/mL (≈ 11.3 µM) was the least that counted as inhibitory in test [8] (MIC).

Values taken from ChEMBL document CHEMBL4251581, “Synthesis and antimycobacterial activity of triterpeni≿ A-ring azepanes” (Eur J Med Chem, 2018).
